These results are taken from PMC5218480 (PLoS ONE, 2017).

The assay concerns MV-4-11 cells. Put plainly: Gene expression microarray analysis (Affymetrix PrimeView) and GSEA. The note with it: ProbeSet 11716844_s_at; LIST D. The arrangement: RFU PODN (11730768_x_at) / Fold change /veh PODN (11730768_x_at) / RFU LINC00158 (11744669_a_at) / Fold change /veh LINC00158 (11744669_a_at) / RFU DUSP10 (11751237_a_at) / Fold change /veh DUSP10 (11751237_a_at) / RFU ID3 (11757404_x_at) / Fold change /veh ID3 (11757404_x_at) / RFU PLEKHG5 (11737974_s_at) / Fold change /veh PLEKHG5 (11737974_s_at) / RFU LRRC4B (11730491_at) / Fold change /veh LRRC4B (11730491_at) / RFU GIMAP4 (11747438_a_at) / Fold change /veh GIMAP4 (11747438_a_at) / RFU KRT8 (11758183_x_at) / Fold change /veh KRT8 (11758183_x_at) / RFU CNN1 (11734310_a_at) / Fold change /veh CNN1 (11734310_a_at) / RFU VPS37D (11726825_at) / Fold change /veh VPS37D (11726825_at) / RFU C10orf10 (11716522_x_at) / Fold change /veh C10orf10 (11716522_x_at) / RFU KIR2DL2 /// KIR2DL4 /// KIR2DL5A /// KIR2DL5B /// KIR2DS1 /// KIR2DS2 /// KIR2DS3 /// KIR2DS4 /// KIR3DL3 /// KIR3DL3 /// KIR3DS1 (11738374_at) / Fold change /veh KIR2DL2 /// KIR2DL4 /// KIR2DL5A /// KIR2DL5B /// KIR2DS1 /// KIR2DS2 /// KIR2DS3 /// KIR2DS4 /// KIR3DL3 /// KIR3DL3 /// KIR3DS1 (11738374_at) / RFU C1QL1 (11718748_at) / Fold change /veh C1QL1 (11718748_at) / RFU TMPRSS4 (11747572_a_at) / Fold change /veh TMPRSS4 (11747572_a_at) / RFU HAMP (11756126_x_at) / Fold change /veh HAMP (11756126_x_at) / RFU RNFT2 (11725882_a_at) / Fold change /veh RNFT2 (11725882_a_at) / RFU NR4A2 (11747474_a_at) / Fold change /veh NR4A2 (11747474_a_at) / RFU ABCC12 (11746883_a_at) / Fold change /veh ABCC12 (11746883_a_at) / RFU TMEM136 (11760407_x_at) / Fold change /veh TMEM136 (11760407_x_at) / RFU CLDN22 /// WWC2 (11732394_at) / Fold change /veh CLDN22 /// WWC2 (11732394_at) / RFU HLA-DPB1 (11760878_x_at) / Fold change /veh HLA-DPB1 (11760878_x_at) / RFU SPINT1 (11716480_a_at) / Fold change /veh SPINT1 (11716480_a_at) / RFU GAP43 (11754022_s_at) / Fold change /veh GAP43 (11754022_s_at) / RFU A4GNT (11735810_at) / Fold change /veh A4GNT (11735810_at) / RFU PRB3 (11715151_x_at) / Fold change /veh PRB3 (11715151_x_at) / RFU TUBB4B (11761932_at) / Fold change /veh TUBB4B (11761932_at) / RFU CAPN14 (11732068_a_at) / Fold change /veh CAPN14 (11732068_a_at) / RFU TMCC2 (11721928_a_at) / Fold change /veh TMCC2 (11721928_a_at) / RFU IRGQ (11745062_a_at) / Fold change /veh IRGQ (11745062_a_at) / RFU FAM174B (11720279_a_at) / Fold change /veh FAM174B (11720279_a_at) / RFU TMPRSS4 (11748680_a_at) / Fold change /veh TMPRSS4 (11748680_a_at) / RFU FAM212B (11763350_a_at) / Fold change /veh FAM212B (11763350_a_at) / RFU PLEKHG5 (11743358_a_at) / Fold change /veh PLEKHG5 (11743358_a_at) / RFU ZSCAN30 (11745921_a_at) / Fold change /veh ZSCAN30 (11745921_a_at) / RFU CMKLR1 (11741424_a_at) / Fold change /veh CMKLR1 (11741424_a_at) / RFU LOC101060620 /// MAPK8IP1 (11723275_at) / Fold change /veh LOC101060620 /// MAPK8IP1 (11723275_at) / RFU SPTSSB (11747773_x_at) / Fold change /veh SPTSSB (11747773_x_at) / RFU PRSS12 (11739890_at) / Fold change /veh PRSS12 (11739890_at) / RFU BIN1 (11741810_x_at) / Fold change /veh BIN1 (11741810_x_at) / RFU WNT11 (11732464_a_at) / Fold change /veh WNT11 (11732464_a_at) / RFU C10orf10 (11716521_a_at) / Fold change /veh C10orf10 (11716521_a_at) / RFU C5orf56 (11738089_at) / Fold change /veh C5orf56 (11738089_at) / RFU CYB561 (11721691_x_at) / Fold change /veh CYB561 (11721691_x_at) / RFU ANKRD19P (11752326_a_at) / Fold change /veh ANKRD19P (11752326_a_at) / RFU OR2T12 /// OR2T33 /// OR2T8 (11738714_s_at) / Fold change /veh OR2T12 /// OR2T33 /// OR2T8 (11738714_s_at) / RFU VCAN (11748164_a_at) / Fold change /veh VCAN (11748164_a_at) / RFU JSRP1 (11732532_at) / Fold change /veh JSRP1 (11732532_at) / RFU KRTAP10-11 (11738290_x_at) / Fold change /veh KRTAP10-11 (11738290_x_at) / RFU MYO3A (11730013_a_at) / Fold change /veh MYO3A (11730013_a_at) / RFU EBF3 (11725865_a_at) / Fold change /veh EBF3 (11725865_a_at) / RFU CAMK2N1 (11719241_x_at) / Fold change /veh CAMK2N1 (11719241_x_at) / RFU C5orf56 (11738088_a_at) / Fold change /veh C5orf56 (11738088_a_at) / RFU OLFML3 (11715873_a_at) / Fold change /veh OLFML3 (11715873_a_at) / RFU LOC100653217 /// NTM (11731650_a_at) / Fold change /veh LOC100653217 /// NTM (11731650_a_at) / RFU MAPK11 (11762145_a_at) / Fold change /veh MAPK11 (11762145_a_at) / RFU FIZ1 (11724087_x_at) / Fold change /veh FIZ1 (11724087_x_at) / RFU OASL (11726364_x_at) / Fold change /veh OASL (11726364_x_at) / RFU SOX15 (11748057_x_at) / Fold change /veh SOX15 (11748057_x_at) / RFU CD79A (11719716_a_at) / Fold change /veh CD79A (11719716_a_at) / RFU HIST1H1D (11736915_at) / Fold change /veh HIST1H1D (11736915_at) / RFU CASKIN2 (11723855_a_at) / Fold change /veh CASKIN2 (11723855_a_at) / RFU LOC730098 (11760151_x_at) / Fold change /veh LOC730098 (11760151_x_at) / RFU OR4N2 (11742367_at) / Fold change /veh OR4N2 (11742367_at) / RFU PRRT2 (11749266_a_at) / Fold change /veh PRRT2 (11749266_a_at) / RFU SNX32 (11753110_a_at) / Fold change /veh SNX32 (11753110_a_at) / RFU CDHR5 (11726645_a_at) / Fold change /veh CDHR5 (11726645_a_at) / RFU RCAN1 (11760418_a_at) / Fold change /veh RCAN1 (11760418_a_at) / RFU FAM167A (11723789_a_at) / Fold change /veh FAM167A (11723789_a_at) / RFU FAM26E (11764081_at) / Fold change /veh FAM26E (11764081_at) / RFU ISYNA1 (11749810_s_at) / Fold change /veh ISYNA1 (11749810_s_at) / RFU ACY1 (11761880_at) / Fold change /veh ACY1 (11761880_at) / RFU 11764098_at / Fold change /veh 11764098_at / RFU SAMD14 (11745864_x_at) / Fold change /veh SAMD14 (11745864_x_at) / RFU NPB (11741838_a_at) / Fold change /veh NPB (11741838_a_at) / RFU TMPRSS6 (11731388_a_at) / Fold change /veh TMPRSS6 (11731388_a_at) / RFU KRTAP10-2 (11738614_at) / Fold change /veh KRTAP10-2 (11738614_at) / RFU ARHGAP8 /// PRR5-ARHGAP8 (11727945_x_at) / Fold change /veh ARHGAP8 /// PRR5-ARHGAP8 (11727945_x_at) / RFU KRTAP5-7 /// NADSYN1 (11734609_at) / Fold change /veh KRTAP5-7 /// NADSYN1 (11734609_at) / RFU RASL12 (11751679_a_at) / Fold change /veh RASL12 (11751679_a_at) / RFU CDKN2B (11736163_a_at) / Fold change /veh CDKN2B (11736163_a_at) / RFU PRF1 (11729649_at) / Fold change /veh PRF1 (11729649_at) / RFU, ZNF638 /// ZNF638-IT1 / Fold change vs veh, ZNF638 /// ZNF638-IT1 / RFU, PANK3 / Fold change vs veh, PANK3 / RFU, SH3YL1 / Fold change vs veh, SH3YL1 / RFU, ZEB2 / Fold change vs veh, ZEB2 / RFU, NRIP1 / Fold change vs veh, NRIP1 / RFU, PTTG1IP / Fold change vs veh, PTTG1IP / RFU, CAPN2 / Fold change vs veh, CAPN2 / RFU, MED14 / Fold change vs veh, MED14 / RFU, SNORA58 / Fold change vs veh, SNORA58 / RFU, C1orf63 / Fold change vs veh, C1orf63 / RFU, LRRFIP1 / Fold change vs veh, LRRFIP1 / RFU, NDUFAF7 / Fold change vs veh, NDUFAF7 / RFU, SLC12A2 / Fold change vs veh, SLC12A2 / RFU, IBTK / Fold change vs veh, IBTK / RFU, ESF1 / Fold change vs veh, ESF1 / Fold change vs veh, TMEM50B / RFU, TAOK1 / Fold change vs veh, TAOK1 / RFU, ACBD3 / Fold change vs veh, ACBD3 / RFU, TMA16 / Fold change vs veh, TMA16 / RFU, RWDD3 / Fold change vs veh, RWDD3 / RFU, BCAT1 / Fold change vs veh, BCAT1 / RFU, EDEM3 / Fold change vs veh, EDEM3 / RFU, TMEM33 / Fold change vs veh, TMEM33 / RFU, WDR75 / Fold change vs veh, WDR75 / RFU, AHCTF1 / Fold change vs veh, AHCTF1 / RFU, TFRC / Fold change vs veh, TFRC / RFU, ZDHHC17 / Fold change vs veh, ZDHHC17 / RFU, NOM1 / Fold change vs veh, NOM1 / RFU, ARL8B / Fold change vs veh, ARL8B / RFU, ZBTB11 / Fold change vs veh, ZBTB11 / RFU, TAMM41 / Fold change vs veh, TAMM41 / RFU, KIAA1704 /// LOC100996395 / Fold change vs veh, KIAA1704 /// LOC100996395 / RFU, ING1 / Fold change vs veh, ING1 / RFU, TRMT61B / Fold change vs veh, TRMT61B / RFU, FUBP3 / Fold change vs veh, FUBP3 / RFU, TP53 / Fold change vs veh, TP53 / RFU, TNKS2 / Fold change vs veh, TNKS2 / RFU, ZFP14 / Fold change vs veh, ZFP14 / RFU, ACTR2 / Fold change vs veh, ACTR2 / RFU, PPP3R1 / Fold change vs veh, PPP3R1 / RFU, PIK3R1 / Fold change vs veh, PIK3R1 / RFU, HNRNPA1 / Fold change vs veh, HNRNPA1 / RFU, RNF170 / Fold change vs veh, RNF170 / RFU, ZNF28 / Fold change vs veh, ZNF28 / RFU, RNGTT / Fold change vs veh, RNGTT / RFU, OGT / Fold change vs veh, OGT / RFU, BRD1 / Fold change vs veh, BRD1 / RFU, MARS / Fold change vs veh, MARS / RFU, ZNF655 / Fold change vs veh, ZNF655 / RFU, FAHD1 / Fold change vs veh, FAHD1 / RFU, BDP1 / Fold change vs veh, BDP1 / RFU, LRRCC1 / Fold change vs veh, LRRCC1 / RFU, ARID1A / Fold change vs veh, ARID1A / RFU, ZNF146 / Fold change vs veh, ZNF146 / RFU, ZNF330 / Fold change vs veh, ZNF330 / RFU, GPN3 / Fold change vs veh, GPN3 / RFU, C9orf123 / Fold change vs veh, C9orf123 / RFU, N4BP2L2 / Fold change vs veh, N4BP2L2 / RFU, ARFIP1 / Fold change vs veh, ARFIP1 / RFU, FAM179B / Fold change vs veh, FAM179B / RFU, BCL10 / Fold change vs veh, BCL10 / RFU, UHRF1BP1L / Fold change vs veh, UHRF1BP1L / RFU, BET1 / Fold change vs veh, BET1 / RFU, CNOT2 / Fold change vs veh, CNOT2 / RFU, ZNF268 / Fold change vs veh, ZNF268 / Fold change vs veh, ZNF507 / RFU, DGCR2 / Fold change vs veh, DGCR2 / RFU, WDSUB1 / Fold change vs veh, WDSUB1 / Fold change vs veh, HSP90B1 /// MIR3652 / RFU, ADSS / Fold change vs veh, ADSS / RFU, GK / Fold change vs veh, GK / RFU, ZNF148 / Fold change vs veh, ZNF148 / RFU, TAF9 / Fold change vs veh, TAF9 / RFU, SLC1A5 / Fold change vs veh, SLC1A5 / RFU, SLMO2 / Fold change vs veh, SLMO2 / RFU, ABCC4 / Fold change vs veh, ABCC4 / RFU, LOC101060439 /// RAP1B / Fold change vs veh, LOC101060439 /// RAP1B / RFU, RFX7 / Fold change vs veh, RFX7 / RFU, GTPBP10 / Fold change vs veh, GTPBP10 / RFU, CNEP1R1 / Fold change vs veh, CNEP1R1 / RFU, BIVM-ERCC5 /// ERCC5 / Fold change vs veh, BIVM-ERCC5 /// ERCC5 / RFU, ILF3 / Fold change vs veh, ILF3 / RFU 11762660_at / Fold change /veh 11762660_at / RFU VCAN (11757783_s_at) / Fold change /veh VCAN (11757783_s_at) / RFU DDX43 (11728927_at) / Fold change /veh DDX43 (11728927_at) / RFU KRT8 (11758188_x_at) / Fold change /veh KRT8 (11758188_x_at) / RFU NKD1 (11759106_at) / Fold change /veh NKD1 (11759106_at) / RFU SRD5A1 (11742802_a_at) / Fold change /veh SRD5A1 (11742802_a_at) / RFU TPSAB1 /// TPSB2 (11721975_s_at) / Fold change /veh TPSAB1 /// TPSB2 (11721975_s_at) / RFU GSTM3 (11746129_a_at) / Fold change /veh GSTM3 (11746129_a_at) / RFU IL23R (11737362_x_at) / Fold change /veh IL23R (11737362_x_at) / RFU TMEM51 (11727254_a_at) / Fold change /veh TMEM51 (11727254_a_at) / RFU PIWIL2 (11732686_x_at) / Fold change /veh PIWIL2 (11732686_x_at) / RFU ORM1 (11744905_x_at) / Fold change /veh ORM1 (11744905_x_at) / RFU CCDC152 (11743942_at) / Fold change /veh CCDC152 (11743942_at) / RFU ECM1 (11717891_a_at) / Fold change /veh ECM1 (11717891_a_at) / RFU IL23R (11748794_a_at) / Fold change /veh IL23R (11748794_a_at) / RFU TNFAIP8L3 (11732012_x_at) / Fold change /veh TNFAIP8L3 (11732012_x_at) / RFU MBOAT4 (11741988_at) / Fold change /veh MBOAT4 (11741988_at) / RFU 11764193_at / Fold change /veh 11764193_at / RFU TMEM53 (11763286_at) / Fold change /veh TMEM53 (11763286_at) / RFU MAGEB2 (11727129_at) / Fold change /veh MAGEB2 (11727129_at) / RFU TMEM200A (11744735_a_at) / Fold change /veh TMEM200A (11744735_a_at) / RFU CCDC152 (11751479_a_at) / Fold change /veh CCDC152 (11751479_a_at) / RFU FAM211A (11726209_a_at) / Fold change /veh FAM211A (11726209_a_at) / RFU RGS16 (11746705_a_at) / Fold change /veh RGS16 (11746705_a_at) / RFU VCAN (11755009_s_at) / Fold change /veh VCAN (11755009_s_at) / RFU RHOB (11743442_s_at) / Fold change /veh RHOB (11743442_s_at) / RFU RGS16 (11720943_a_at) / Fold change /veh RGS16 (11720943_a_at) / RFU RGS16 (11720944_at) / Fold change /veh RGS16 (11720944_at) / RFU, VPS4B / Fold change vs veh, VPS4B / RFU, CREB1 / Fold change vs veh, CREB1 / RFU, DNAJC13 / Fold change vs veh, DNAJC13 / RFU, GNAQ / Fold change vs veh, GNAQ / RFU, CDK5R1 / Fold change vs veh, CDK5R1 / RFU, ZRANB3 / Fold change vs veh, ZRANB3 / RFU, CUL4A / Fold change vs veh, CUL4A / RFU, CCNY / Fold change vs veh, CCNY / RFU, UFL1 / Fold change vs veh, UFL1 / RFU, COG3 / Fold change vs veh, COG3 / RFU, DIAPH2 / Fold change vs veh, DIAPH2 / RFU, SKA2 / Fold change vs veh, SKA2 / RFU, AFF3 / Fold change vs veh, AFF3 / RFU, LMF1 / Fold change vs veh, LMF1 / RFU, IPO11 / Fold change vs veh, IPO11 / RFU, DFFB / Fold change vs veh, DFFB / RFU, FOXP1 / Fold change vs veh, FOXP1 / RFU, CARD8 / Fold change vs veh, CARD8 / RFU, STRN3 / Fold change vs veh, STRN3 / RFU, ADK / Fold change vs veh, ADK / RFU, RASSF2 / Fold change vs veh, RASSF2 / RFU, WIPF1 / Fold change vs veh, WIPF1 / RFU, LARP1B / Fold change vs veh, LARP1B / RFU, RASA1 / Fold change vs veh, RASA1 / RFU, RB1 / Fold change vs veh, RB1 / RFU, PPFIA1 / Fold change vs veh, PPFIA1 / RFU, MAT2A / Fold change vs veh, MAT2A / RFU, CCT5 / Fold change vs veh, CCT5 / RFU, WDR92 / Fold change vs veh, WDR92 / RFU, CUX1 / Fold change vs veh, CUX1 / RFU, TTC7A / Fold change vs veh, TTC7A / RFU, TMEM135 / Fold change vs veh, TMEM135 / RFU, DEPTOR / Fold change vs veh, DEPTOR / RFU, CPM / Fold change vs veh, CPM / RFU, DNAJB6 / Fold change vs veh, DNAJB6 / RFU, CACNA2D3 / Fold change vs veh, CACNA2D3 / RFU, DTX4 / Fold change vs veh, DTX4 / RFU, TFCP2 / Fold change vs veh, TFCP2 / RFU, GMCL1 /// GMCL1P1 / Fold change vs veh, GMCL1 /// GMCL1P1 / RFU, AEBP2 / Fold change vs veh, AEBP2 / RFU, SNHG1 /// SNORD22 /// SNORD25 /// SNORD26 /// SNORD27 /// SNORD28 /// SNORD29 /// SNORD31 / Fold change vs veh, SNHG1 /// SNORD22 /// SNORD25 /// SNORD26 /// SNORD27 /// SNORD28 /// SNORD29 /// SNORD31 / Fold change (Aza/veh), C12orf56 (ProbeSet 11735607_a_at) / Fold change (ACY-1035/veh), C12orf56 (ProbeSet 11735607_a_at) / Fold change (Aza/veh), FGFR1OP (ProbeSet 11751329_s_at) / Fold change (ACY-1035/veh), FGFR1OP (ProbeSet 11751329_s_at) / Fold change (Aza/veh), VPS36 (ProbeSet 11739960_a_at) / Fold change (ACY-1035/veh), VPS36 (ProbeSet 11739960_a_at) / RFU SYPL1 (11715823_x_at) / Fold change /veh SYPL1 (11715823_x_at) / RFU IGFBP7 (11715501_s_at) / Fold change /veh IGFBP7 (11715501_s_at) / RFU REEP3 (11722064_at) / Fold change /veh REEP3 (11722064_at) / RFU IGLL1 (11728026_x_at) / Fold change /veh IGLL1 (11728026_x_at): dose or concentration left out as unconfirmed. Type of assay: cell-based, human.

On to `Nc1ccc(-c2cccs2)cc1NC(=O)c1ccc2c(c1)cc(C1CC1)n2CCN1CCOCC1` [ACY-1035], for which the “Fold change vs veh, DNAJC13” value turned out to be 0.91.
